Assays:
[1] = Particle size and polydispersity index (PDI) of lipid nanoparticles by dynamic light scattering; assay type: physicochemical; conditions: LNP formulation prepared from the cationic lipid, 25° C.
Procedure: The particle size and polydispersity index (PDI) were determined by dynamic light scattering using Malvern laser particle size analyzer.
10 μL of the liposome solution was weighed, diluted to 1 mL with RNase-free deionized water, and added to the sample pool. Each sample was measured in triplicate. The measurement conditions were: […] scattering angle, and 25° C.

[2] = system: 293T cells; experiment: Fluorescent detection of Fluc-mRNA (cell transfection efficiency of LNP formulations); assay type: cell-based
Procedure: (§1) Cell recovery and passage: 293T cells were recovered, cultured in a culture dish, and passaged to the required number of cells.
(§2) Seeding plate: The cells in the culture dish were digested and counted. Cells were spread in a 96-well plate at 10,000 cells per well and in a 12-well plate at 150,000 cells per well. Cells were cultured overnight until the cells adhered to the wall.
(§3) Cell recovery and passage: the method was the same as in Example 3.
(§4) Seeding plate: the method was the same as in Example 3.
An LNP formulation containing […] of Fluc-mRNA (the carrier components of the LNP formulation were cationic lipid, neutral lipid, structured lipid and polymer-conjugated lipid with a molar ratio of 49:10:39.5:1.5, wherein the cationic lipid was listed in Table 1) was added to the cell culture medium of a 96-well plate, and further incubated for 24 hours. The corresponding reagent was added according to the instructions of the […] Luciferase Assay Kit, and the fluorescence expression intensity of each well was detected by an IVIS fluorescence detection system. This test verified the transfection efficiencies of LNP formulations in cells, see Tables 4-7 for specific test results.

[3] = system: 293T cells; experiment: Cell survival rate determination (CCK-8); assay type: cell-based; conditions: LNP formulation of Fluc-mRNA, 24 hours, CCK-8
Procedure: as §1, §2, §3, §4
An LNP formulation containing […] of Fluc-mRNA (the carrier components of the LNP formulation were cationic lipid, neutral lipid, structured lipid and polymer-conjugated lipid with a molar ratio of 49:10:39.5:1.5, wherein the cationic lipid was listed in Table 1) and the formulation of Lipofectamine 3000 were added to the cell culture medium of a 96-well plate, and further cultivated for 24 hours. 10 μL of CCK-8 solution was then added to each well, and the culture plate was incubated in an incubator for 1 hour. The absorbance at 450 nm was measured by a microplate reader.
Cell survival rate can represent the toxicity of cationic lipids to cells. The higher the cell survival rate, the lower the toxicity to cells.

[4] = system: female BALB/C mice; experiment: Live imaging in mice: protein expression of Fluc-mRNA delivered by LNP formulations; assay type: in vivo
Procedure: In addition, the protein expression and duration of mRNA in mice delivered by the cationic lipid delivery carriers designed were also verified.
The LNP formulation containing […] Fluc-mRNA was injected intramuscularly into female BALB/C mice aged 4 to 6 weeks old and weighed 17 to 19 g, and the mice were intraperitoneally injected with fluorescent imaging substrate at specific time points after administration (6 h, 24 h, 48 h and 7 d), where the mice were free to move for 5 minutes, and then the average radiation intensity (corresponding to fluorescence expression intensity) of the protein expression of the mRNA carried by the LNP in the mice was detected by the IVIS Spectrum small animal live imaging device.

CCCCCCCCCCOC(=O)CCCN(CCCCCC(=O)OCCC(CCCCCC)CCCCCC)C[C@H](O)CN(CC)CCO [YK-309, (S)-3-hexylnonyl-6-(4-(decyloxy)-4-oxobutyl)(2-hydroxy-3-(((2-hydroxyethyl)(ethyl)amino)propyl)amino)hexanoate]
PDI (%) [1]: 27.6%
Particle size (nm) [1]: 232 nm
Relative light unit (RLU) ([2]; LNP formulation of Fluc-mRNA, 96-well plate, 24 hours): 125370 RLU
Multiples (YK-305) ([2]; RLU of YK-305 / RLU of the lipid of the line): 218.62
Multiples (YK-310) ([2]; RLU of YK-310 / RLU of the lipid of the line): 205.77
Multiples (YK-312) ([2]; RLU of YK-312 / RLU of the lipid of the line): 160.71
Ratio relative to SM-102 ([2]; RLU of the lipid / RLU of SM-102, times that of SM-102): 0.08
Cell survival rate (%) [3]: 31.61%
average radiation intensity ([4]; 6 h after intramuscular injection): 65680
average radiation intensity ([4]; 24 h after intramuscular injection): 16820
average radiation intensity ([4]; 48 h after intramuscular injection): 6551
average radiation intensity ([4]; 7 d after intramuscular injection): 1256
